pIC50, pKi: −log10 of the molar value. Values joined by “and” are separate entries in the source; they are usually repeats but may differ in a detail not shown here. Equal entries are not always repeated. Where two headings read alike, the source gives them in different places. Blank lines part the entries; values can stand above or below the compound they belong to.
Key:
[1] = In vitro flags for victim and perpetrator properties conferring DDI liability; type: in vitro ADME, human; conditions: in vitro flag, mainly based on in vitro determinations
[2] = cited from earlier work
[3] = cited from earlier work; remark: listed apart in the source
[4] = 2020 1, cited from earlier work
CYP2C9 = conditions: ref mefloquine Karbwang et al., 1988 58; tafenoquine Charman et al., 2020 1; cited from earlier work
[5] = cited from earlier work; for fu: PBPK input
[6] = PBPK input; ref Charman et al., 2020 1; cited from earlier work
CYP2B6 [7] = assay: Metabolism by CYP2B6 (CLint, Vmax, Km, fm); type: in vitro ADME, human; conditions: fraction metabolised used in the PBPK model (artemether: without induction)
Excerpt: (§1) In nearly all cases the fraction of systemic elimination metabolised by a given enzyme (fm) determined in vitro was unavailable in the literature.

CYP3A4 [8] = target: T1, CYP3A4 (Homo sapiens, UniProt P08684); conditions: cited from earlier work
T1 sequence (P08684 whole entry): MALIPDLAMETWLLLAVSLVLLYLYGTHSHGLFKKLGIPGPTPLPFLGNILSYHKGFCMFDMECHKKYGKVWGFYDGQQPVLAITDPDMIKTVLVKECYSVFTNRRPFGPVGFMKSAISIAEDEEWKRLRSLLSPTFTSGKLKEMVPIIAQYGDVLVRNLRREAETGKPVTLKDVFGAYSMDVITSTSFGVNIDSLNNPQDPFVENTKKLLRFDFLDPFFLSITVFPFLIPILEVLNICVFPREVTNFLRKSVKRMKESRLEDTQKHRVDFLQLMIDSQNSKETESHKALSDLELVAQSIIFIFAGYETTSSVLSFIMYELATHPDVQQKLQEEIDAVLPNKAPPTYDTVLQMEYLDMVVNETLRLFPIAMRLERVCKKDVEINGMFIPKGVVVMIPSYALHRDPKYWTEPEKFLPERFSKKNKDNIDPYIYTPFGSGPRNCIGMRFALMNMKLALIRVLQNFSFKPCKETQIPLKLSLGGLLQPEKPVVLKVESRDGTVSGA

[9] = cited from earlier work; remark: listed apart in the source
Caco-2 cells = conditions: cited from earlier work
CYP3A4 [10] = target: T1, CYP3A4
Excerpt: as §1

[11] = PBPK simulation of drug-drug interactions (Simcyp V19); design: species or system human; conditions: ratio of simulated to clinically observed AUC ratio; DDI of the respective line of Table S3
Excerpt: Here, we provide three example applications where the available PBPK models were used to address questions relating to DDI assessment. […] Additional simulation methods are provided in Appendix S1.
All simulations, including the ones performed for the applications, were run using Version 19 of the Simcyp population-based PBPK simulator (Simcyp (Certara), Sheffield, UK) and unless stated otherwise, input parameters for all drugs are as specified (Supplementary Information Table S1). All simulations were run using ten virtual trials that were matched as closely as possible to the clinical study volunteers in terms of the number of subjects, their age, the proportion of males/females and according to the same study design.

CYP2B6 [12] = tested on: CYP2B6; design: method as in Honda et al., 2011 12; conditions: ref Honda et al., 2011 12; cited from earlier work
CYP1A2 = conditions: read-out: CYP1A2 IC50; ref Charman et al., 2020 1; cited from earlier work
[13] = Fraction unbound in human liver microsomes (fumic); conditions: extrapolated from value measured at 0.4 mg/mL to 0.1 mg/mL, method of Austin et al., 2002
[14] = 80 mg BID (Day 22-24) + rifampicin 600 mg QD (Days 1-24), HIV-infected, ref Lamorde et al., 2013 3
[15] = 80 mg BID (Days 13-15) + efavirenz 600 mg QD (Days 1-16), ref Huang et al., 2012 4
[16] = 80 mg SD (Day 1) + ketoconazole 400 mg SD (Day 1), 200 mg QD (Days 2-5), ref Lefevre et al., 2002 2
[17] = calibrated against propranolol, plasma as medium for atovaquone and piperaquine, ref Charman et al., 2020 1

Risk as a perpetrator [1]: CYP3A4 and CYP2C9 inhibitor
Compound: COc1cc(C)c2c(Oc3cccc(C(F)(F)F)c3)c(OC)cc(NC(C)CCCN)c2n1 (centres unmarked) [Tafenoquine, tafenoquine]
CL PO ([2]; clinically observed oral (in vivo) clearance, pyronaridine: blood, ref amodiaquine Winstanley et al., 1987 9, DEAQ Akande et al., 2015 8, Scarsi et al., 2014 35, Tarning et al., 2012 36, Orrell et al., 2008 37, DHA Na-Bangchang et al., 2004 42, lumefantrine Lefevre et al., 2002 52, Hoglund et al., 2015 53, mefloquine Charles et al., 2007 56, proguanil Jeppesen et al., 1997 34, pyronaridine Jittama): 3.08 L/h
AUC Obs ([3]; 300 mg SD, 0-72 h, ref Green et al., 2014 45): 10611 ng·h/mL
Cmax Obs ([3]; 300 mg SD, ref Green et al., 2014 45): 186 ng/mL
AUC Obs ([3]; 400 mg QD (3 days), 0-72 h, ref Green et al., 2014 45): 41896 ng·h/mL
Cmax Obs ([3]; 400 mg QD (3 days), ref Green et al., 2014 45): 724 ng/mL
AUC Obs ([3]; 600 mg SD, 0-72 h, ref Green et al., 2014 45): 22986 ng·h/mL
Cmax Obs ([3]; 600 mg SD, ref Green et al., 2014 45): 422 ng/mL
B:P ([4]; ref Charman et al.): 1.3
pKi (CYP2C9): 5.00
fu ([5]; ref atovaquone Mepron Prescribing Information, 2008, Nixon et al., 2013 13, Rolan et al., 1997 14, azithromycin Foulds et al., 1990 20, chloroquine Ofori-Adjei et al., 1986 27, Walker et al., 1983 28, DHA Batty et al., 2004 41 (healthy volunteers), lumefantrine CDER submission 22-269, proguanil Wattanagoon et al., 1987 63, tafenoquine Dow et al., 2020 84): 0.005
fu, range reported in the literature ([5]; depending on the methodology used, ref literature): 0.0007 to 0.11
Main binding protein ([5]; ref amodiaquine, DEAQ Hietala, 2009 2, atovaquone Nixon et al., 2013 13, DHA Batty et al., 2004 41, mefloquine, tafenoquine (also AGP) Zsila et al., 2008 54): HSA

Compound: CO[C@H]1O[C@@H]2O[C@@]3(C)CC[C@H]4[C@H](C)CC[C@@H]([C@H]1C)[C@@]24OO3 [Artemether, artemether]
Log P [6]: 3.7
fmCYP2B6 (CYP2B6 [7]): 47%
CYP3A4 Vmax reported (CYP3A4 [8]): 12.3 pmol/min/pmol
Km (CYP3A4 [8]): 8.24 µM
AUC ratio Obs [9, 14]: 0.11
Cmax ratio Obs [9, 14]: 0.18
AUC ratio Obs [9, 15]: 0.49
Cmax ratio Obs [9, 15]: 0.79
AUC ratio Obs [9, 16]: 2.51
Cmax ratio Obs [9, 16]: 2.24
Risk as a perpetrator [1]: CYP2B6 inducer
Risk as a victim [1]: Substrate of CYP2B6 and CYP3A4
AUC Obs ([3]; 80 mg BID (Day 3 PM), 60-72 h, ref Huang et al., 2012 8): 59.5 ng·h/mL
AUC Obs ([3]; 80 mg BID (Day 3 PM), 62-72 h, ref Lefevre et al., 2002 7): 61.4 ng·h/mL
Cmax Obs ([3]; 80 mg BID (Day 3 PM), ref Huang et al., 2012 8): 21.2 ng/mL
Cmax Obs ([3]; 80 mg BID (Day 3 PM), ref Lefevre et al., 2002 7): 30.8 ng/mL
AUC Obs ([3]; 80 mg SD, Indian, 0-inf, ref Lefevre et al., 2013 6): 408 ng·h/mL
Cmax Obs ([3]; 80 mg SD, Indian, ref Lefevre et al., 2013 6): 113 ng/mL
AUC Obs ([3]; 80 mg SD, 0-inf, ref Lefevre et al., 2002 5): 320 ng·h/mL
Cmax Obs ([3]; 80 mg SD, ref Lefevre et al., 2002 5): 104 ng/mL
Caco-2 (Papp A-B) (Caco-2 cells; [17]): 42.7 10-6 cm/s
B:P ([4]; PBPK input, ref artemether Colussi et al., 1999 11, atovaquone Rolan et al., 1997 14, Beerahee, 1999 16, Charman et al., azithromycin Pene Dumitrescu et al., 2013 21, DEAQ Winstanley et al., 1987 9, proguanil weighted mean Helsby et al., 1993 61, Wattanagoon et al., 1987 63): 0.8
fmCYP3A4 (CYP3A4 [10]): 53%
AUC ratios Sim/Obs [11]: 1.00 and 1.08 and 1.15
CYP2B6 Vmax reported (CYP2B6 [12]): 17.9 pmol/min/pmol
Km (CYP2B6 [12]): 1.95 µM
fu ([5]; ref Charman et al., 2020 1): 0.038

Risk as a perpetrator [1]: CYP1A2 inhibitor
Risk as a victim [1]: Substrate of MAO and CYP2D6
fumic [13]: 0.84
Compound: COc1cc(NC(C)CCCN)c2ncccc2c1 (centres unmarked) [Primaquine, primaquine]
CL IV ([2]; clinically observed, ref atovaquone Lavelle et al., 1994 17, chloroquine Walker et al., 1987 29, Gustafsson et al., 1983 30, doxycycline Raghuram et al., 1982 48, Nguyen et al., 1989 49, primaquine Mihaly et al., 1985 26, quinine White et al., 1983 77, Paintaud et al., 1993 78): 24.2 L/h
fe (fraction excreted unchanged in urine) ([2]; ref atovaquone Rolan et al., 1997 14, mefloquine Schwartz et al., 1982 57, primaquine White, 1985 62, proguanil (extensive metabolisers) Jeppesen et al., 1997 34, pyronaridine Wattanavijitkul, 2010 74, sulfadoxine assumed with Edstein, 1987 83): < 0.01%
pIC50 (CYP1A2): > 6.60
AUC Obs ([3]; 15 mg QD (Day 14), 0-inf, ref Ward et al., 1985 14): 443 ng·h/mL
Cmax Obs ([3]; 15 mg QD (Day 14), ref Ward et al., 1985 14): 66 ng/mL
AUC Obs ([3]; 15 mg SD, 0-inf, ref Mihaly et al., 1985 12): 500 ng·h/mL
AUC Obs ([3]; 15 mg SD, 0-inf, ref Ward et al., 1985 14): 468 ng·h/mL
Cmax Obs ([3]; 15 mg SD, ref Mihaly et al., 1985 12): 53 ng/mL
Cmax Obs ([3]; 15 mg SD, ref Ward et al., 1985 14): 65 ng/mL
AUC Obs ([3]; 30 mg SD, 0-inf, ref Hanboonkunupakarn et al., 2014 13): 1130 ng·h/mL
AUC Obs ([3]; 30 mg SD, 0-inf, ref Jittamala et al., 2015 15): 1180 ng·h/mL
Cmax Obs ([3]; 30 mg SD, ref Hanboonkunupakarn et al., 2014 13): 128 ng/mL
Cmax Obs ([3]; 30 mg SD, ref Jittamala et al., 2015 15): 139 ng/mL
AUC Obs ([3]; 45 mg SD, 0-inf, ref Mihaly et al., 1985 12): 1700 ng·h/mL
Cmax Obs ([3]; 45 mg SD, ref Mihaly et al., 1985 12): 176 ng/mL
Caco-2 (Papp A-B) (Caco-2 cells; [17]): 29 10-6 cm/s
B:P ([4]; ref Charman et al.): 0.82
fu ([5]; ref Charman et al., 2020 1): 0.26

Risk as a victim [1]: Substrate of CYP3A4
fmCYP3A4 (CYP3A4 [10]): 95%
CLint CYP3A4 (CYP3A4 [10]; microsomes): 0.168 µL/min/pmol
Compound: OC(c1cc(C(F)(F)F)nc2c(C(F)(F)F)cccc12)C1CCCCN1 (centres unmarked) [Mefloquine, mefloquine]
CL PO ([2]; in vivo, po): 2.09 L/h
CL renal ([2]; in vivo): 0.07 L/h
AUC Obs ([3]; in vivo, 250 mg): 116000 ng·h/mL
Cmax Obs ([3]; in vivo, 250 mg): 310 ng/mL
AUC Obs ([3]; in vivo, 750 mg): 393500 ng·h/mL
AUC Obs ([3]; in vivo, 1000 mg): 516000 ng·h/mL
Cmax Obs ([3]; in vivo, 1000 mg): 960 ng/mL
Cmax Obs ([3]; in vivo, 1500 mg): 1440 ng/mL
Caco-2 (Papp A-B) (Caco-2 cells; Caco-2): 66 10-6 cm/s
pKi (CYP2C9): 3.59

Source: publication PMC10508484, “Development and application of a PBPK modeling strategy to support antimalarial drug development” (CPT: Pharmacometrics & Systems Pharmacology, 2023)
